Experimental data as given in PubChem BioAssay (NCI).
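In this assay, cells in 96-well plates receive the compound at five concentrations for 48 hours. Endpoints are linearly interpolated between the surrounding concentrations. TGI denotes the concentration required for complete inhibition of growth.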

Assays:
Experiment in all cases: NCI anticancer screen, dose series, 48 h
[1] = system: MDA-MB-435
[2] = system: SF-268 CNS
[3] = system: NCI-H460 lung
[4] = system: HCT-15 colon
[5] = system: U251 CNS
[6] = system: RPMI-8226 leukemia
[7] = system: HCC-2998 colon
[8] = system: SF-539 CNS
[9] = system: SK-MEL-2 melanoma
[10] = system: KM12 colon
[11] = system: UO-31 renal
[12] = system: HOP-92 NSCLC
[13] = system: SNB-75 CNS
[14] = system: MOLT-4 leukemia
[15] = system: RXF 393 renal
[16] = system: SN12C renal
[17] = system: OVCAR-4 ovarian
[18] = system: OVCAR-5 ovarian
[19] = system: HCT-116 colon
[20] = system: UACC-257 melanoma
[21] = system: TK-10 renal
[22] = system: SW-620 colon
[23] = system: 786-0 renal
[24] = system: NCI-H23 lung
[25] = system: PC-3 prostate
[26] = system: NCI/ADR-RES ovarian
[27] = system: K-562 leukemia
[28] = system: SNB-19 CNS
[29] = system: BT-549 breast
[30] = system: A549 NSCLC
[31] = system: MDA-MB-231 breast
[32] = system: OVCAR-3 ovarian
[33] = system: UACC-62 melanoma
[34] = system: HOP-62 NSCLC
[35] = system: LOX IMVI melanoma
[36] = system: SF-295 CNS
[37] = system: A498 renal
[38] = system: CAKI-1 renal
[39] = system: DU-145 prostate
[40] = system: HT29 colon
[41] = system: MCF7 breast
[42] = system: M14 melanoma
[43] = system: IGROV1 ovarian
[44] = system: SK-OV-3 ovarian
[45] = system: SR leukemia
[46] = system: OVCAR-8 ovarian
[47] = system: NCI-H226 lung
[48] = system: MALME-3M melanoma
[49] = system: HL-60(TB) leukemia
[50] = system: CCRF-CEM leukemia
[51] = system: EKVX NSCLC
[52] = system: HS 578T breast
[53] = system: T-47D breast
[54] = system: MDA-N
[55] = system: SK-MEL-5 melanoma
[56] = system: ACHN renal
[57] = system: SK-MEL-28 melanoma
[58] = system: NCI-H522 lung
[59] = system: COLO 205 colon

Cc1cc(S(=O)(=O)n2ccnc2Oc2cccc(Cl)c2)c(SSc2cc(Cl)c(C)cc2S(=O)(=O)n2ccnc2Oc2cccc(Cl)c2)cc1Cl
TGI [1]: 48.3 µM
TGI [2]: > 100 µM
TGI [3]: > 71.1 µM
TGI [4]: > 100 µM
TGI [5]: 12.4 µM
TGI [6]: > 38.7 µM
TGI [7]: 53 µM
TGI [8]: 37 µM
TGI [9]: 26.9 µM
TGI [10]: > 100 µM
TGI [11]: > 100 µM
TGI [12]: > 100 µM
TGI [13]: > 91.1 µM
TGI [14]: 35 µM
TGI [15]: 24.2 µM
TGI [16]: > 100 µM
TGI [17]: > 100 µM
TGI [18]: > 100 µM
TGI [19]: > 60.7 µM
TGI [20]: > 100 µM
TGI [21]: > 100 µM
TGI [22]: > 100 µM
TGI [23]: > 70 µM
TGI [24]: > 100 µM
TGI [25]: > 78.5 µM
TGI [26]: 21.8 µM
TGI [27]: > 100 µM
TGI [28]: > 100 µM
TGI [29]: 43 µM
TGI [30]: > 100 µM
TGI [31]: > 51.3 µM
TGI [32]: > 100 µM
TGI [33]: > 53.2 µM
TGI [34]: 38.7 µM
TGI [35]: > 100 µM
TGI [36]: > 46.9 µM
TGI [37]: 84.5 µM
TGI [38]: > 43.5 µM
TGI [39]: > 78.7 µM
TGI [40]: 48.5 µM
TGI [41]: > 29.3 µM
TGI [42]: > 42 µM
TGI [43]: > 100 µM
TGI [44]: > 92.5 µM
TGI [45]: > 100 µM
TGI [46]: > 41.8 µM
TGI [47]: 30.7 µM
TGI [48]: 41.1 µM
TGI [49]: 20.9 µM
TGI [50]: 10.7 µM
TGI [51]: > 100 µM
TGI [52]: 21.2 µM
TGI [53]: > 67.2 µM
TGI [54]: > 58.3 µM
TGI [55]: 23 µM
TGI [56]: > 32 µM
TGI [57]: > 100 µM

Cc1ccc([N+](=O)[O-])cc1S(=O)(=O)Nc1ccc(C2=NN(C(=O)c3ccccc3)C(c3ccccc3)C2)cc1 (stereo not drawn)
TGI [1]: > 100 µM
TGI [2]: > 100 µM
TGI [4]: > 100 µM
TGI [5]: > 100 µM
TGI [6]: > 100 µM
TGI [8]: 55.2 µM
TGI [9]: 38.7 µM
TGI [10]: > 100 µM
TGI [11]: > 100 µM
TGI [12]: 62.9 µM
TGI [13]: 49.9 µM
TGI [14]: > 100 µM
TGI [15]: 57.3 µM
TGI [16]: 63.1 µM
TGI [17]: > 100 µM
TGI [18]: > 100 µM
TGI [19]: > 100 µM
TGI [20]: 64.7 µM
TGI [21]: 68.8 µM
TGI [22]: > 100 µM
TGI [23]: 48.2 µM
TGI [24]: 68.2 µM
TGI [25]: > 100 µM
TGI [26]: > 100 µM
TGI [27]: > 100 µM
TGI [28]: > 100 µM
TGI [29]: 96.9 µM
TGI [58]: 58.2 µM
TGI [30]: > 100 µM
TGI [31]: 46.3 µM
TGI [32]: 49 µM
TGI [34]: 72 µM
TGI [35]: > 100 µM
TGI [36]: > 100 µM
TGI [37]: 51.3 µM
TGI [38]: > 100 µM
TGI [39]: > 100 µM
TGI [40]: > 100 µM
TGI [41]: 75.7 µM
TGI [42]: > 100 µM
TGI [43]: 95.2 µM
TGI [44]: 73.7 µM
TGI [45]: > 100 µM
TGI [46]: > 100 µM
TGI [47]: 72.2 µM
TGI [48]: 66.6 µM
TGI [49]: 81.8 µM
TGI [50]: > 100 µM
TGI [59]: 33.9 µM
TGI [51]: 59.7 µM
TGI [52]: > 100 µM
TGI [53]: 97.5 µM
TGI [54]: 67.4 µM
TGI [55]: 30.4 µM
TGI [56]: 93.6 µM
TGI [57]: > 100 µM
